Our source for the IC50 and inhibition values is ChEMBL document CHEMBL3396957, “Heteroatom insertion into 3,4-dihydro-1H-quinolin-2-ones leads to potent and selective inhibitors of human and rat aldosterone synthase” (Eur J Med Chem, 2015).

The target of data set [1] is T1, Cytochrome P450 11B1, mitochondrial (Homo sapiens, UniProt P15538).
T1 sequence (P15538 whole entry): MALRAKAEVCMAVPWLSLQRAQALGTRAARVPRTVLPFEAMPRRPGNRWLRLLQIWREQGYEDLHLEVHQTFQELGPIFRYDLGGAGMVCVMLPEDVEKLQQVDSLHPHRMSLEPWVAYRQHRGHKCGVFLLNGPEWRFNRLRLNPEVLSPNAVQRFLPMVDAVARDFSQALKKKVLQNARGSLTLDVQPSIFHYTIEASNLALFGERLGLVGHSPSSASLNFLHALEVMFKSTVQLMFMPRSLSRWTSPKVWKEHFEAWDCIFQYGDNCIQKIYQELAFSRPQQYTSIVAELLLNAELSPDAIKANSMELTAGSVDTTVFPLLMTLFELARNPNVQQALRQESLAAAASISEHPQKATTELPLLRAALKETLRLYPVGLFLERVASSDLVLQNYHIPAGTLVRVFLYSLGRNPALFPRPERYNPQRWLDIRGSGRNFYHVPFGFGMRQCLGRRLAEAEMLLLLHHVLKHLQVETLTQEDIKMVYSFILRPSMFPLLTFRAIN
Briefly: (§1) Inhibition of CYP11B1 […] cells using [3H]-11-deoxycorticosterone as substrate incubated for 1 hr prior to substrate addition measured after 25 mins by HPLC analysis. The class given is cell-based.

For a further data set, the target named is T2, CYP19 (aromatase) (Homo sapiens, UniProt P11511).
T2 sequence (P11511 whole entry): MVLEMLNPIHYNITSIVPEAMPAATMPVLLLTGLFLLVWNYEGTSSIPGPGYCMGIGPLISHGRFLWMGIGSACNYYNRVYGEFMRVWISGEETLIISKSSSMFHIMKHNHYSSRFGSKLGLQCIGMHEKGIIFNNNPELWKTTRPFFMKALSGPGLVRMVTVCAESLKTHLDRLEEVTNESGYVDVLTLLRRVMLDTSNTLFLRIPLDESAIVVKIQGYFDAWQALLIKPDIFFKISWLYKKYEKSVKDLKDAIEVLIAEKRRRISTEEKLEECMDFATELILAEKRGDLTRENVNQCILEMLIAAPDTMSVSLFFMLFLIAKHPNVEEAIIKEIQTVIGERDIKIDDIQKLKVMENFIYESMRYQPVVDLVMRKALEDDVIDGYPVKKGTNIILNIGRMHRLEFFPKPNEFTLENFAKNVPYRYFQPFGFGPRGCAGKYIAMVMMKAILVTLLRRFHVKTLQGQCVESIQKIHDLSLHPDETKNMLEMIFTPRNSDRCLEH
As to the kind of experiment: Inhibition of human recombinant CYP19 using [1beta-3H]androstenedione as substrate at 500 nM. Particulars: recombinant CYP19, probe [1beta-3H]androstenedione.

A further data set addresses T3, CYP17 (Homo sapiens, UniProt P05093).
T3 sequence (P05093 whole entry): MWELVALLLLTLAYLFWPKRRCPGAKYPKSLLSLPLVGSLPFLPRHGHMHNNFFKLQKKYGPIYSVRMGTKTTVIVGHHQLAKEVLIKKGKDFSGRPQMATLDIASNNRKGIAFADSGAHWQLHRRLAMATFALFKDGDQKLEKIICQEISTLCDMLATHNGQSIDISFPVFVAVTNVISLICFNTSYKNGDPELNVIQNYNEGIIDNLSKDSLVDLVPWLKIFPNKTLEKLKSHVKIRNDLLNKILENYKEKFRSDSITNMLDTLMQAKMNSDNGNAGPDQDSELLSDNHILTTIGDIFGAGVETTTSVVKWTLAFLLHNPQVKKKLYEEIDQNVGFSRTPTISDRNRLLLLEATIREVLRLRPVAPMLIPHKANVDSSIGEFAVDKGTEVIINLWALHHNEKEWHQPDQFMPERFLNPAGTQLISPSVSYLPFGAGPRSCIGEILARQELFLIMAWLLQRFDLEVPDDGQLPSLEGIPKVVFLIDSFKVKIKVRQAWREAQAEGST
As to the kind of experiment: Inhibition of human recombinant CYP17 expressed in Escherichia coli using progesterone as substrate at 2 uM. Particulars: probe progesterone.

For data set [2], the target named is T4, Cytochrome P450 11B2, mitochondrial (Homo sapiens, UniProt P19099).
T4 sequence (P19099 whole entry): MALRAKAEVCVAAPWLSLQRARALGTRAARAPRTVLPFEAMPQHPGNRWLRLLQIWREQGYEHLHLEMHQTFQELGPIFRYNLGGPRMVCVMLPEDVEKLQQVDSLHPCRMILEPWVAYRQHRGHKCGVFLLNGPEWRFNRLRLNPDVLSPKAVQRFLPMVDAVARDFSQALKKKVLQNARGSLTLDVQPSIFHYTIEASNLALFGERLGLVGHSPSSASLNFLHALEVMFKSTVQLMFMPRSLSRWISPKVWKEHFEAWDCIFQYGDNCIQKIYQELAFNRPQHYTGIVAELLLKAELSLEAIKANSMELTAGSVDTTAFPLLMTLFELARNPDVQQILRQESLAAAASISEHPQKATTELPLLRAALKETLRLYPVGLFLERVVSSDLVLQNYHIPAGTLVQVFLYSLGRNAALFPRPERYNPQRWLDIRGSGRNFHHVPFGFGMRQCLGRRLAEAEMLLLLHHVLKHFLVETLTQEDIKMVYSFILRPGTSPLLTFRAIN
Briefly: Inhibition of CYP11B2 […] cells using [3H]-11-deoxycorticosterone as substrate incubated for 1 hr prior to substrate addition measured after 45 mins by HPLC analysis. Format: cell-based.

Data set [3] concerns the target T4, Cytochrome P450 11B2, mitochondrial. As to the kind of experiment: Inhibition of CYP11B2 […] cells using [3H]-11-deoxycorticosterone as substrate at 500 nM incubated for 1 hr prior to substrate addition measured after 45 mins by HPLC analysis. The class given is cell-based. Particulars: 0.75 h.
A further data set deals with T5, CYP11B1 (Homo sapiens, UniProt P15538).
T5 sequence (P15538 whole entry): T1 sequence (P15538 whole entry)
The data set is described as §1. The class given is cell-based. Particulars: human, V79MZ cells expressing CYP11B1, probe [3H]-11-deoxycorticosterone.

Data set [4] has as its target T6, Cytochrome P450 11B2, mitochondrial (Rattus norvegicus, UniProt P30099).
T6 sequence (P30099 whole entry): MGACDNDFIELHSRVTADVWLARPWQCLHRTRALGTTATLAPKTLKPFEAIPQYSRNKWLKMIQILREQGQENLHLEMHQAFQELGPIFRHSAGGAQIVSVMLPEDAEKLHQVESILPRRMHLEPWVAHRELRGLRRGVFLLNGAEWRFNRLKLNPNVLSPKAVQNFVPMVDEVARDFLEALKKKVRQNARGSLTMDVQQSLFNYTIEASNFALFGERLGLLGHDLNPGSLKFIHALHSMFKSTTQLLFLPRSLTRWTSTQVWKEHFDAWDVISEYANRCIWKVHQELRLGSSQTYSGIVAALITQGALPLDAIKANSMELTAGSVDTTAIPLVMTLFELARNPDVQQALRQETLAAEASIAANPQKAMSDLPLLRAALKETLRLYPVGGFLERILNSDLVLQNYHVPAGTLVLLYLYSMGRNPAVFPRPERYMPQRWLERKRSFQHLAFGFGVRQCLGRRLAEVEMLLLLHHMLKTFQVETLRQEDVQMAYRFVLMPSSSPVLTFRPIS
Briefly: Inhibition of rat CYP11B2 using [3H]-11-deoxycorticosterone as substrate at 2 uM incubated for 1 hr prior to substrate addition measured after 7 hrs by HPLC analysis.

Data set [5] has as its target T6, Cytochrome P450 11B2, mitochondrial. Briefly: Inhibition of rat CYP11B2 using [3H]-11-deoxycorticosterone as substrate at 0.5 uM incubated for 1 hr prior to substrate addition measured after 7 hrs by HPLC analysis. Particulars: read-out: INH.

As to `CN1C(=O)COc2cc(-c3cccnc3)ccc21`, the IC50 worked out at 0.776 µM in data set [1] and 0.011 µM in data set [2]. Further, the results for the inhibition at 0.5 µM (at CYP19 (aromatase); in data set [3]) were 20% and 98%, respectively. For the same compound, at CYP17, the inhibition at 2 µM is less than 10%.

For `O=C1NCc2cc(-c3cccnc3)ccc2N1`, the IC50 in data set [1] is 0.12 µM; in data set [2], 0.228 µM. Besides, the inhibition at 0.5 µM in data set [3] came out at 72%.

On CYP11B1, `O=C1CSc2cc(-c3cccnc3)ccc2N1` gave an IC50 at 25 min of 0.525 µM. The same compound had a concentration for half-maximal inhibition (IC50) in data set [2] of 0.012 µM.

In turn, `O=C1CCc2cc(-c3cccnc3)ccc2N1` had an IC50 at 25 min against CYP11B1 of 6.75 µM. Further, the inhibition at 0.5 µM at CYP19 (aromatase) was determined as 31%. Besides, the inhibition at 2 µM is 20% at CYP17 and less than 5% in data set [4]. This compound also had an IC50 in data set [2] of 0.028 µM.

Regarding `N#Cc1ccc(C2CCCc3cncn32)cc1` (stereo unspecified) [FADROZOLE], the inhibition at 0.5 µM in data set [5] came to 67%.

The IC50 is the midpoint of a concentration-inhibition curve. A high value points to weaker potency in that assay.
